Source: patent publication US20080221131A1, “THIENOPYRIMIDINEDIONES AND THEIR USE IN MODULATION OF AUTOIMMUNE DISEASE” (priority 2003, published 2008)

Test system: PMA/ionomycin-stimulated PBMC proliferation
Assay: Inhibition of PMA/ionomycin-stimulated peripheral blood mononuclear cell proliferation
Type: cell-based
Conditions: human PBMC, PMA 0.5 ng/ml + ionomycin 500 ng/ml, 72 hours, 3H-thymidine incorporation; read-out: PIA50 (the source's name) (converted)
Procedure: Inhibition of PMA/Ionomycin-Stimulated Peripheral Blood Mononuclear Cell Proliferation
The assay for PMA/ionomycin-stimulated PBMC proliferation was performed in 96-well flat-bottomed microtitre plates. Compounds were prepared as 10 mM stock solutions in dimethyl sulfoxide. A 50-fold dilution of this was prepared in RPMI and serial dilutions were prepared from this solution. 10 μl of the 50-fold diluted stock, or dilutions of it, were added to the well to give concentrations in the assay starting at 9.5 μM and going down. Into each well was placed 1×10^5 PBMC, prepared from human peripheral blood from a single donor, in RPMI1640 medium supplemented with 10% human serum, 2 mM glutamine and penicillin/streptomycin. Phorbol myristate acetate (PMA) (0.5 ng/ml final concentration) and ionomycin (500 ng/ml final concentration) were added to these cells in supplemented RPMI1640 medium (as above) so that the final volume of the assay was 0.2 ml. The cells were incubated at 37° C. in a humidified atmosphere at 5% carbon dioxide for 72 hours. ^3H-Thymidine (0.5 μCi) was added for the final 6 hours of the incubation. The level of radioactivity incorporated by the cells was then determined and this is a measure of proliferation.

## Cc1nn(-c2ncccn2)c(C)c1Cc1sc2c(c1C(=O)N1C[C@H](O)CO1)c(=O)n(C)c(=O)n2C(C)C [Example 1, 6-[[3,5-dimethyl-1-(2-pyrimidinyl)-1H-pyrazol-4-yl]methyl]-5-[[(4S)-4-hydroxy-2-isoxazolidinyl]carbonyl]-3-methyl-1-(1-methylethyl)thieno[2,3-d]pyrimidine-2,4(1H,3H)-dione]
  IC50: 5.01 nM

## Cc1nn(-c2nccs2)c(C)c1Cc1sc2c(c1C(=O)N1C[C@H](O)CO1)c(=O)n(C)c(=O)n2C(C)C [Example 3, (S)-2-[[6-[[3,5-Dimethyl-1-(2-thiazolyl)-1H-pyrazol-4-yl]methyl]-1,2,3,4-tetrahydro-3-methyl-1-(1-methylethyl)-2,4-dioxothieno[2,3-d]pyrimidin-5-yl]carbonyl]-4-isoxazolidinol]
  IC50: 0.851 nM
